Results: patent publication US20070010429A1, “Phospholipid formulations and uses thereof in lung disease detection and treatment” (The Hospital For Sick Children, priority 2005, published 2007)
Where two headings read alike, the source gives them in different places.

Columns and labels:
neonatal rats [1] = conditions: treated rats; day 10 control rats 9.0±0.4 microns
Description: BALF samples, containing 50 nM of PC, were extracted and lipids were dried under nitrogen. Lipid samples were then reconstituted in 1 ml of saline at 37° C. followed by bath sonication. Following one freeze-thaw cycle the vesicle size was determined by dynamic light scattering (21) using a Malvern Mastersizer X (Malvern Instruments Ltd., Worcestershire, United Kingdom).
To even further characterize this relationship, light scattering analysis was performed on liposomes formed from total lipids extracted from BALF.

newborn Wistar rats = conditions: high dose, short-term dexamethasone, age of 14 days; cited from earlier work
neonatal rats [2] = tested on: neonatal rats
Description: Timed-pregnant female Wistar rats and C57/B16 mice were obtained from Charles River (St. Constant, Qc, Canada). All animal protocols were in accordance with Canadian Counsel of Animal Care guidelines and were approved by the Animal Care and Use Committee of the Hospital for Sick Children. Developmental profile: At fetal day 19 and 22 (term=23 days) the pregnant rat was anesthetized and the pups delivered by cesarean section, while postpartum rodents were removed from their mother directly before sacrifice. Dexamethasone treatment: Newborn Wistar rats were injected daily for 4 days with dexamethasone (Sabex, Boucherville, Quebec, Canada) diluted in isotonic saline starting at postnatal day 1 according to previously described protocols (17). Hyperoxia exposure: The oxygen treatment was performed by housing the rat pups with their mother in chambers containing either 21% or 60% oxygen, starting at day 1 until day of lavage (i.e. postnatal day 4, 7, 10 or 14) (18).
After sacrificing the animals, a needle (blunted tip) was inserted through a tracheostomy and the lungs were lavaged with a buffer composed of phosphate-buffered saline augmented with 0.05 mg/ml of 70 kDa dextran-FITC [Molecular probes, Burlington, ON, Canada]. The inert fluorescent marker was included to determine lavage recovery (see FIG. 4e).
BALF samples were spiked with 1 μg of deuterated dipalmitoyl-PC (16:0/16:0PC) (Avanti polar lipids, Alabaster Ala., USA) as an internal standard, and then extracted (19). Lipids were analyzed using an API4000 mass spectrometer [MDS SCIEX, Concord, Ontario, Canada) (20).
To determine the nature of this relationship, BALF samples were examined from two rat models of diminished alveolarization. The two models employed were postnatal exposure to either dexamethasone or 60% oxygen. Postnatal administration of dexamethasone to rats has been described to result in a reduced alveolarization (17, 39-41). In the present study, a high dose, short-term treatment with dexamethasone was used to induce reduced alveolarization in the animal.
Neonatal hyperoxia of mice and rats may also be used to induce diminished alveolarization (18, 42-44).

[3] = freeze fracture analysis; cited from earlier work

| SMILES | average particle size of liposomes formed from BALF lipids (neonatal rats [1]) | parenchymal complexity / lung alveoli compared to controls (newborn Wistar rats) | total PC in BALF (neonatal rats [2]; 60% oxygen from day 1, postnatal day 10) | total PC in BALF (neonatal rats [2]; 60% oxygen from day 1, postnatal day 14) | palmitoylmyristoyl-PC (16:0/14:0PC) in BALF (neonatal rats [2]; after 14 days of 60% oxygen exposure, only PC species reduced) | dipalmitoyl-PC (16:0/16:0PC) content in BALF (neonatal rats [2]; rats exposed to 60% oxygen) | palmitoylmyristoyl-PC (16:0/14:0PC) content in BALF (neonatal rats [2]; rats exposed to 60% oxygen) | palmitoylpalmitoleoyl-PC (16:0/16:1PC) content in BALF (neonatal rats [2]; rats exposed to 60% oxygen) | liposome radius compared to palmitoylmyristoyl-PC (16:0/14:0PC) liposomes [3] |
| --- | --- | --- | --- | --- | --- | --- | --- | --- | --- |
| C[C@@H]1C[C@H]2[C@@H]3CCC4=CC(=O)C=C[C@]4(C)[C@@]3(F)[C@@H](O)C[C@]2(C)[C@@]1(O)C(=O)CO [dexamethasone, reference compound] | 13.2±0.7 microns | significant decrease in parenchymal complexity | – | – | – | – | – | – | – |
| O=O [60% oxygen, oxygen] | 12.6±0.6 microns | – | significant reduction | no longer significantly different | significantly reduced | reduced | reduced | reduced | – |
| CCCCCCCCCCCCCCCC(=O)OC[C@H](COP(=O)([O-])OCC[N+](C)(C)C)OC(=O)CCCCCCCCCCCCCCC [16:0/16:0, Dipalmitoyl Phosphatidylcholine] | – | – | – | – | – | – | – | – | three-fold greater radius |
